Experimental data taken from PMC9425443 (RSC Advances, 2022).
Where a name gives a salt, the structure may show the parent alone.

How the values were obtained:
[1] = molecular target: recombinant CYP142A1 (Mycobacterium tuberculosis, UniProt P9WPL5); conditions: pH 7.4
[2] = system: CC(C)CCC[C@@H](C)[C@H]1CC[C@H]2[C@@H]3CCC4=CC(=O)CC[C@]4(C)[C@H]3CC[C@]12C; test: purified protein, by the assay type; conditions: pH 7.5

recombinant CYP142A1, sequence (P9WPL5 whole entry): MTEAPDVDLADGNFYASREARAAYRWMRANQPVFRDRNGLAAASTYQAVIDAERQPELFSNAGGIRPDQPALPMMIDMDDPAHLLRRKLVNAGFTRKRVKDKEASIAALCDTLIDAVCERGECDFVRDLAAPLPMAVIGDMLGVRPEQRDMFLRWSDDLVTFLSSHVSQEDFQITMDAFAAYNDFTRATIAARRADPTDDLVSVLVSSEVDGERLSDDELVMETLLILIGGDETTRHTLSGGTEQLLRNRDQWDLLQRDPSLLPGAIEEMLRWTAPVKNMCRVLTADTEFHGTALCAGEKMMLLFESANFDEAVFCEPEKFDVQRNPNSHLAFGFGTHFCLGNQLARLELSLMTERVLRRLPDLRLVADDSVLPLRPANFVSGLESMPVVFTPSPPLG

Compound	Kd [1]	Km [2]	kcat [2]
CC(C)CCC[C@@H](C)[C@H]1CC[C@H]2[C@@H]3CC=C4C[C@@H](OS(=O)(=O)O)CC[C@]4(C)[C@H]3CC[C@]12C [Cholesteryl sulfate]	27 ± 6.9 µM	–	–
(Mycobacterium tuberculosis H37Rv)	–	35 ± 5.4 µM	0.128 ± 0.00717 s⁻¹
Cholesteryl propionate	45 ± 7 µM	–	–
